Source: article PMC9811466, “Structural Features Affecting the Interactions and Transportability of LAT1-Targeted Phenylalanine Drug Conjugates” (Molecular Pharmaceutics, 2022)
Where two headings read alike, the source gives them in different places.

How the values were obtained:
[1] = target: T1, LAT1 in MCF-7 human breast cancer cells (Homo sapiens, UniProt Q01650); assay: cis-inhibition of [14C]-L-leucine uptake in MCF-7 cells; format: cell-based; settings: for inhibition at 50 µM: MCF7, MCF-7 cells, 50 μM compound; for IC50: MCF-7 cells
T1 construct: wild-type MCF-7 human breast cancer cell line; endogenous in cells; host or cells: MCF-7 human breast cancer cells (wild type)
Description: Cells were cultured in DMEM (Gibco, ThermoFisher Scientific, Waltham, MA, USA) supplemented with L-glutamine (2 mM; ThermoFisher Scientific, Waltham, MA, USA), heat-inactivated fetal bovine serum (10%; Gibco, ThermoFisher Scientific, Waltham, MA, USA), penicillin (50 U/mL)-streptomycin (50 μg/mL) solution (ThermoFisher Scientific, Waltham, MA, USA), and hygromycin B solution (100 μg/mL) for transfected cells. HEK-hLAT1 and HEK-MOCK cells (passages 7–20) were seeded at a density of 5 × 10^5 cells/wells onto 24-well plates. The cells were used in the characterization, competition, and uptake studies 2 days after seeding. MCF-7 cells were seeded at a density of 1 × 10^5 and were used in the competition studies 1 day after seeding. The culture medium was removed, and the cells were washed with prewarmed Hanks’ balanced salt solution (HBSS; 125 mM NaCl, 4.8 mM KCl, 1.2 mM MgSO4, 1.2 mM KH2PO4, 1.3 mM CaCl2, 5.6 mM D-glucose, and 25 mM HEPES, pH 7.4). The cells were then incubated with HBSS at 37 °C for 10 min before the experiments.
(§1) In the following experiments, the MCF-7, HEK-hLAT1, and HEK-MOCK cells were cultured, seeded, and preincubated as described above. The HBSS was removed, and the ability of the compounds to inhibit the uptake of a known LAT1 substrate, [^14C]-L-leucine (PerkinElmer, Waltham, MA, USA), was studied by incubating the cells at RT for 10 min in uptake buffer pH 7.4 (250 μL) containing 0.76 μM (0.1 mCi/mL) of [^14C]-L-leucine and 0.025–1800 μM of the studied compound (or HBSS as blank). After incubation, the reaction was stopped with ice-cold HBSS, and the cells were washed two times with ice-cold HBSS. The cells were then lysed with 250 μL of 0.1 M sodium hydroxide, the lysate was mixed with 1.0 mL of Emulsifier safe cocktail (PerkinElmer, Waltham, MA, USA), and the radioactivity was measured with a liquid scintillation counter (MicroBeta^2 counter, PerkinElmer, Waltham, MA, USA). The inhibition of [^14C]-L-leucine in the presence of the studied compounds as compared to the control (HBSS) was calculated as percentages (%).

[2] = target: T2, hLAT1/4F2hc (Homo sapiens, UniProt Q01650); assay: cis-inhibition of [14C]-L-leucine uptake in HEK-hLAT1 cells; format: cell-based; settings: for inhibition at 50 µM: read-out: [14C]-L-Leucine uptake inhibition % (50μM)
T2 construct: Invitrogen (host cells)
Description: as §1
Using the stably hLAT1/4F2hc expressing cell line, the compounds’ inhibitory efficiencies and uptake kinetics were determined via the cis-inhibition assay and uptake studies, respectively. (Table 1) Cis-inhibition is based on the competition between the ligand and LAT1 substrate [^14C]-L-leucine that results in inhibition of substrate uptake. The competitive uptake with L-leucine is reported as the IC50 value of L-leucine uptake and extent as inhibition percentage (%) at a given concentration.

[3] = target: T2, hLAT1/4F2hc; assay: Concentration-dependent cellular uptake into HEK-hLAT1 cells (LC-MS/MS, Michaelis-Menten); format: cell-based; settings: difference in uptake HEK-hLAT1 vs HEK-MOCK, with docking poses; 2-100 μM curves
[4] = system: HEK-MOCK cells; assay: cis-inhibition of [14C]-L-leucine uptake in HEK-MOCK cells; format: cell-based, human; settings: for [14C]-L-Leucine uptake inhibition % (50μM): 50 μM compound, 0.76 μM [14C]-L-leucine; for IC50: read-out: IC50 of [14C]-L-leucine uptake
Description: as §1
Using the stably hLAT1/4F2hc expressing cell line, the compounds’ inhibitory efficiencies and uptake kinetics were determined via the cis-inhibition assay and uptake studies, respectively. (Table 1) Cis-inhibition is based on the competition between the ligand and LAT1 substrate [^14C]-L-leucine that results in inhibition of substrate uptake. The competitive uptake with L-leucine is reported as the IC50 value of L-leucine uptake and extent as inhibition percentage (%) at a given concentration. Overall, the inhibition trends of the tested compounds were similar between HEK-hLAT1 and MCF-7 cells. In the next step, more straightforward results were obtained by undertaking direct cellular uptake studies with both HEK-hLAT1 and HEK-MOCK cells. This experiment enabled us to determine not only the uptake kinetics (Vmax and Km) of the ligands but also their preference for LAT1-expressing cells over the comparator HEK-MOCK cells.

[5] = target: T2, hLAT1/4F2hc; assay: Concentration-dependent cellular uptake into HEK-hLAT1 cells (LC-MS/MS, Michaelis-Menten); format: cell-based; settings: HEK-hLAT1 cells, known LAT1 substrates, n = 3; for Vmax: 2-400 μM, 10 min
Description: (§2) The concentrations for the compounds were in the range of 2–400 μM. Otherwise, the experiment was carried out as described above and analyzed by liquid chromatography coupled with an electrospray ionization (ESI) triple quadrupole mass spectrometer (LC–MS–MS). […]
(§3) The concentration-dependent uptake studies were performed by adding 2–400 μM of the tested compound in 250 μL of prewarmed HBSS buffer on the cell layer. […] After incubation, the cells were washed and lysed as described above. The lysate was collected from wells into an Eppendorf tube and centrifuged at 4 °C, the supernatant was collected, and the intracellular concentrations of studied compounds were analyzed by liquid chromatography coupled with an ESI triple quadrupole mass spectrometer (LC–MS–MS). The results were calculated from the standard curve that was prepared by spiking known amounts of each compound to the cell lysate and normalized to protein concentration. The protein concentrations on each plate were determined as a mean of three samples by Bio-Rad Protein Assay, based on the Bradford dye-binding method, using BSA as a standard protein and measuring the absorbance (595 nm) by a multiplate reader (EnVision, PerkinElmer, Inc., Waltham, MA, USA). All statistical analyses (Michaelis–Menten kinetic parameters) were performed using GraphPad Prism v. 5.03 software (GraphPad Software, San Diego, CA., USA). […]
(§4) After protein precipitation, the samples were centrifuged for 10 min with 10,000 g at 4 °C. The supernatant was then collected and transferred to vials for LC–MS/MS analysis. For BCH and gabapentin, cells were also lysed with 0.1 M NaOH, an aliquot was taken from the lysates, and perchloric acid (PCA) was added to precipitate the proteins. The samples were then centrifuged, and the supernatant was diluted 1:10 with H20 with 0.1% formic acid including the IS and transferred to vials for analysis.
(§5) The samples were analyzed with LC–MS/MS coupled with an Agilent 1200 series Rapid Resolution LC System (Agilent Technologies, Waldbronn, Germany) and an Agilent 6410 Triple Quadrupole with electrospray ionization (ESI) (Agilent Technologies, Palo Alto, CA, USA). […] The aqueous mobile phase was 0.1% formic acid in water (A), while the organic mobile phase was 0.1% formic acid in acetonitrile (B). […] For compound 4: 0–4 min 10% → 90% B, 4–6 min 90% B, 6–6.1 min 90% → 10%, 6.1–9 min 10%. For compound 5: 0–1 min 20% → 95% B, 1–4 min 95%, 4–4.1 min 95% → 20%, 4.1–7 min 20%. For compounds 6 and 9: 0–2 min 10% → 95%, 2–6 min 95%, 6–6.1 min 95% → 10%, 6.1–9 min 10%. For compound 8: 0–1 min 20% → 80%, 1–5.2 min 80%, 5.2–5.3 min 80% → 20%, 5.3–9 min 20%.

[6] = system: HEK-MOCK cells; assay: Concentration-dependent cellular uptake into HEK-MOCK cells; format: cell-based, human; settings: known LAT1 substrates, n = 3; for Vmax: 2-400 μM, 10 min
Description: as §2, §3, §4, §5

[7] = HEK-hLAT1 cells, 50 μM compound, compounds 1-12
[8] = HEK-hLAT1 cells, compounds 1-12, read-out: IC50 of [14C]-L-leucine uptake
[9] = HEK-MOCK cells, 10 min, known substrates
[10] = HEK-hLAT1 cells, known substrates, read-out: IC50 of [14C]-L-leucine uptake

T1 sequence (Q01650 whole entry): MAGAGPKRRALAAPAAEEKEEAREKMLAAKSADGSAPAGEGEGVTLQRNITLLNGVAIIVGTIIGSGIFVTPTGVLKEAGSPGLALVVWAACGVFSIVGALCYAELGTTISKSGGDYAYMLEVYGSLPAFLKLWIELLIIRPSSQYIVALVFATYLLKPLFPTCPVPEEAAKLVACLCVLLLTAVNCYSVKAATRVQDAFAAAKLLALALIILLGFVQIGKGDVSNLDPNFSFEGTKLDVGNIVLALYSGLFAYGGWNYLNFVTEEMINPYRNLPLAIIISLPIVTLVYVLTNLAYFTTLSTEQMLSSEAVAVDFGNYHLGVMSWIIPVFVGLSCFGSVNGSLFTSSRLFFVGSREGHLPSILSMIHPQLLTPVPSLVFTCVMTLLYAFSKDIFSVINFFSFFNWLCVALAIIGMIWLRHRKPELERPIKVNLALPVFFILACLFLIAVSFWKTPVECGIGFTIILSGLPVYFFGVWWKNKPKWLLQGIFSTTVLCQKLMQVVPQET
T1 sequence (P08195 102-630 partner): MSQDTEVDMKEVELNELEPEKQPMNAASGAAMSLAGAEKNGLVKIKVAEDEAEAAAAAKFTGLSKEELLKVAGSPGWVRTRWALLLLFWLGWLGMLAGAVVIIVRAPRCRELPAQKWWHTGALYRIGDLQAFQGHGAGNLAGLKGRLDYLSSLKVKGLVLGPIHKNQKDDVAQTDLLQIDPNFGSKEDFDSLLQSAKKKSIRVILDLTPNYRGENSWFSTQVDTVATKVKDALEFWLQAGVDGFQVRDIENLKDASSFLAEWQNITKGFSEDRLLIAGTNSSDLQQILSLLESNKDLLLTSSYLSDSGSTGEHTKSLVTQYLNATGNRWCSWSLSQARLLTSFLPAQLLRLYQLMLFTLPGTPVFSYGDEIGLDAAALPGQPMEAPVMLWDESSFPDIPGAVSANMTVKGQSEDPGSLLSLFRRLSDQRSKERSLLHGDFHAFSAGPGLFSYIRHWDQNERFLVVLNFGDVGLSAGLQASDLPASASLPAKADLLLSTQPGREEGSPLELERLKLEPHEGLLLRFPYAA
T2 sequence (Q01650 whole entry): as the sequence (Q01650 whole entry) above
T2 sequence (P08195 102-630 partner): as the sequence (P08195 102-630 partner) above

Row | Structure (SMILES) | inhibition at 50 µM [1] [%] | IC50 [1] [µM] | inhibition at 50 µM [2, 7] [%] | IC50 [2, 8] [µM] | interaction class with LAT1 (interaction and transportability) [3] | [14C]-L-Leucine uptake inhibition % (50μM) [4, 9] | IC50 ([4]; Homo sapiens, HEK-MOCK cells, known substrates) [µM] | inhibition at 50 µM ([2]; HEK-hLAT1 cells, 50 μM compound, 0.76 μM [14C]-L-leucine, 10 min, known substrates) [%] | IC50 [2, 10] [µM] | Vmax [5] | Km ([5]; read-out: Km) [µM] | Vmax [6] | Km [6] [µM] | IC50 [2] [µM] | inhibition at 50 µM [2] [%] | Km [5] [µM] | inhibition at 50 µM ([4]; Homo sapiens, 10 min, read-out: [14C]-L-Leucine uptake inhibition % (50μM)) [%] | IC50 ([4]; Homo sapiens) [µM]
1 | CC(C(=O)Nc1cccc(C[C@H](N)C(=O)O)c1)c1ccc(-c2ccccc2)c(F)c1 (some centres unmarked) [Compound 11] | 84 ± 3.1 | 2.2 ± 1.3 | 26.4 ± 3.1 | > 100 | not interacting with LAT1 | – | – | – | – | – | – | – | – | – | – | – | – | –
2 | COc1ccc2cc(C(C)C(=O)Nc3cccc(C[C@H](N)C(=O)O)c3)ccc2c1 (some centres unmarked) [Compound 12] | 83 ± 1.7 | 5.6 ± 1.3 | 28 ± 2.6 | > 100 | not interacting with LAT1 | – | – | – | – | – | – | – | – | – | – | – | – | –
3 | NCC1(CC(=O)O)CCCCC1 [Gabapentin, reference compound] | – | – | – | – | – | no inhibition | > 1000 | 46.7 ± 1.7 | 36 | 18±9.9 nmol/min/mg of protein | 552 ± 334 | 4.7±1.6 nmol/min/mg of protein | 182 ± 86 | – | – | – | – | –
4 | N[C@@H](Cc1ccc(O)c(O)c1)C(=O)O [L-DOPA, reference compound] | – | – | – | – | – | no inhibition | – | – | 4.1 | 15±7.6 nmol/min/mg of protein | 763 ± 413 | 2.8±0.9 nmol/min/mg of protein | 225 ± 90 | – | – | – | – | –
5 | N[C@@H](Cc1ccc(N(CCCl)CCCl)cc1)C(=O)O [Melphalan, reference compound] | – | – | – | – | – | no inhibition | – | – | – | 0.08±0.01 nmol/min/mg of protein | – | 0.07±0.09 nmol/min/mg of protein | 91 ± 21 | 6.6 | 38.2 ± 2.4 | 35 ± 7 | – | –
6 | N[C@@H](Cc1c[nH]c2ccccc12)C(=O)O [Tryptophan, L-tryptophan, reference compound] | – | – | – | – | – | – | – | – | 24 | 12±19 nmol/min/mg of protein | – | 0.3±0.2 nmol/min/mg of protein | 482 ± 496 | – | 50.2 ± 1.7 | – | 19.6 ± 6.2 | 163
